The target of assay [1] is T1, PDK1 (Homo sapiens, UniProt O15530).
T1 sequence (O15530 1-556): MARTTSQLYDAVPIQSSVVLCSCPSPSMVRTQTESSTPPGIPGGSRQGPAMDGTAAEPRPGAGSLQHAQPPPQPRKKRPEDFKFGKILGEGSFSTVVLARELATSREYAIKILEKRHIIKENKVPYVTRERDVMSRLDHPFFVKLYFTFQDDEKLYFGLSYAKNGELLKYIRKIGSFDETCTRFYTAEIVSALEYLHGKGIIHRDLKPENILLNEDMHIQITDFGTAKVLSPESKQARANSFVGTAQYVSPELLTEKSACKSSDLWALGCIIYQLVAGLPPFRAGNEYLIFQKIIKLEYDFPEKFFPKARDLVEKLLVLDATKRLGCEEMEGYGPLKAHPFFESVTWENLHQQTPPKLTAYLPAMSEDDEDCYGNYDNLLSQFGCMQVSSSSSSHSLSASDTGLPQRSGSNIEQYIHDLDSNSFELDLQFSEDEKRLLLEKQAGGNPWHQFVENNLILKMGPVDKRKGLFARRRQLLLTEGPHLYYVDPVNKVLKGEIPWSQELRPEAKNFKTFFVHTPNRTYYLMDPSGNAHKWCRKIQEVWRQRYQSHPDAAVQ
The following applies: phosphorylation of the PDK tide peptide substrate by PDK1; cited from earlier work.

For another assay, the system named is PKB. The conditions noted are these: increasing extracellular Ins(1,3,4,5,6)P5; cited from earlier work.
Assay [2] concerns the target T1, PDK1. The conditions noted are these: cited from earlier work.
The test system of the next assay is amyloid β deposits. The conditions noted are these: in vivo; cited from earlier work.
The test system of assay [3] is Colo357, BxPc3, or PancTuI tumors. More on the design: reduction of metastasis / reduction of the number of liver metastases / reduction of volumes of recurrent tumors: concentration or dose not given beside the values. The conditions noted are these: cited from earlier work; for reduction of the number of liver metastases / reduction of volumes of recurrent tumors: mouse, in vivo.

A further assay relates to PDAC cells. The conditions noted are these: in vitro; cited from earlier work.
The nature of assay [4]: Example 2: females at risk of fetal malformations, treatment from before conception through first trimester. The conditions noted are these: once daily from before conception through the end of the first trimester; relative to the untreated controls. Format: in vivo. As for the experimental part: Females determined to be at risk of fetal malformations and who are seeking a further pregnancy are split into no treatment, folate treatment, D-chiroinositol treatment, and Folate+D-chiroinositol treatment arms. The respective regimens are administered once daily from before conception through the end of the first trimester. Relative to the untreated controls, the frequency of fetal malformations is reduced in each of the non-control arms.

For assay [5] the following is noted: taken before conception and during early pregnancy; cited from earlier work.
For assay [6] the following is noted: China 1993 to 1995; 3.1 per 10,000 births for those not taking folic acid; cited from earlier work.
In assay [7] the test system is Shh signaling. The following applies: explants from mice at 13.5 days of gestation, six to eight days in culture; cited from earlier work.
The next assay deals with hedgehog signaling. The following applies: cultured neonatal mouse ovaries; cited from earlier work.
For assay [8], the system named is Shh signaling. Nature of the assay: Example 5: curly tail mice embryos, spinal and genitourinary defects. It is filed as in vivo. The following applies: D-chiroinositol vs. myoinositol. As for the experimental part:
These embryos are exposed to the present invention compound D-chiroinositol vs. myoinositol and internal examination is conducted.

The next assay has as its system curly tail model. The conditions noted are these: cited from earlier work.
A further assay concerns MDA-MB 231 cells. The following applies: cited from earlier work.
Assay [9] in a line: Example 4: men on androgen ablative therapy, male breast cancer. The following applies: prior to and throughout androgen ablative therapy; compared to controls. It is filed as in vivo. The source says: Men preparing to initiate androgen ablative therapy are initiated on a course of D-chiroinositol prior to and throughout the treatment with the androgen ablative therapeutic.

For assay [10], the system named is phosphatidyl inositol (PI3K) signaling pathway. In words: Example 6: cultured curly tail mice embryos, PNP closure. The following applies: embryos cultured from E9.5 to E10.5, in vitro. As for the experimental part: To determine whether the downstream targets of the phosphatidyl inositol (PI3K) signaling pathway could be effected by an inhibitor, we can use […] to inhibit the effect of inositol on neural tube closure. The curly tail mice embryos are cultured from E9.5 to E10.5, and the length of unclosed neural folds at the pnp are measured to indicate predisposition to spina bifida. Embryos which are exposed to the kinase inhibitor alone have enlarged PNP's, reflecting the in vivo development of spinal NTD's by 50%-60% of curly tail embryos.

Assay [11] can be described thus: Example 7: fetal alcohol syndrome related defects in offspring of alcohol treated rats. Format: in vivo. The following applies: given before and during the alcohol treatment; versus inositol free alcohol treated group. The method, then: Female rats are administered alcohol for 2 weeks and then mated. The alcohol administration continues through out pregnancy and the rate of fetal alcohol syndrome related defects in the offspring are noted. A second set of rats from the same strain are mated without having the alcohol treatment as a control and the rate of defects of the same type as noted in the first arm are noted. […] A third arm of the study includes rats that are administered D-chiroinositol or a phosphorylate thereof before and during the alcohol treatment and are otherwise treated in the same manner as in the alcohol treatment above.

[12] abbreviates: severe combined immunodeficient mice, orthotopic tumors.

Regarding `O=P(O)(O)OC1[C@@H](OP(=O)(O)O)[C@H](OP(=O)(O)O)C(O)[C@H](OP(=O)(O)O)[C@H]1OP(=O)(O)O` (stereo partly shown) [Ins(1,3,4,5,6)P5], on PDK1 [1], the “direct inhibition of PDK1 catalytic activity” value is listed as “did not directly inhibit”. Also, the “PKB activation in cells” value in the assay with PKB is on record as “lowered PKB activation”.
As for `O=P(O)(O)O[C@@H]1[C@H](O)[C@H](O)[C@@H](OP(=O)(O)O)[C@H](OP(=O)(O)O)[C@H]1O` [Ins(1,4,5)P3], the “binding to PDK1” value on PDK1 [2] is reported as “could not be detected”.
In the case of `OC1C(O)C(O)C(O)C(O)C1O` (stereo not drawn) [epi-inositol], the “efficacy in Alzheimer's disease (amyloid β deposits, cognitive ability)” value (“efficacy in Alzheimer's disease” for short) in the assay on amyloid β deposits is recorded as “only worked at all when given before disease onset”.
Consider “infliximab: human-specific anti-TNF antibody”, for which, in assay [3], the “reduction of the number of liver metastases” value is on record as 69% and the “reduction of volumes of recurrent tumors” value is on record as 73%. Also, in assay [3] (setting [12]), the reduction of metastasis is listed as around 50% and the “reduction of tumor growth” value is “about 30%”. Besides, the “effect on proliferation and invasiveness of PDAC cells” value in the assay with PDAC cells is “only marginally affected”.
In the case of `O=P(O)(O)O[C@H]1[C@H](OP(=O)(O)O)[C@@H](OP(=O)(O)O)[C@H](OP(=O)(O)O)[C@@H](OP(=O)(O)O)[C@H]1OP(=O)(O)O` [InsP6], the “direct inhibition of PDK1 catalytic activity” value at PDK1 [1] is listed as “did not directly inhibit”.
In the case of `O[C@H]1[C@H](O)[C@@H](O)[C@H](O)[C@@H](O)[C@@H]1O` [scyllo-inositol], the “efficacy in Alzheimer's disease” value in the assay on amyloid β deposits was “prevent the accumulation of amyloid β deposits and improved cognitive ability”.
`Nc1nc(O)c2nc(CNc3ccc(C(=O)N[C@@H](CCC(=O)O)C(=O)O)cc3)cnc2n1` [folic acid]: the “frequency of fetal malformations” value in assay [4] is recorded as “reduced”. In addition, in assay [5], the “reduction of the risk of the fetus developing a neural tube defect” value is given as “about 70%”. For the same molecule, the “rate of imperforate anus” value in assay [6] is 1.6 per 10,000 births.
For the molecule `CC1=C2C[C@H]3[C@@H](CC=C4C[C@@H](O)CC[C@@]43C)[C@@H]2CC[C@]12O[C@@H]1C[C@H](C)CN[C@H]1[C@H]2C` [cyclopamine], the “morphogenesis of vibrissa follicles” value in the assay on Shh signaling [7] was “striking inhibition of morphogenesis”. Also, the “induced expression of hedgehog target genes Ptch1 and Gli1” value with hedgehog signaling is “inhibits this induced expression of target genes”.
With `O[C@H]1[C@H](O)[C@@H](O)[C@H](O)[C@@H](O)[C@H]1O` [myo-inositol], in the assay with Shh signaling [8], the “severity of spinal and genitourinary defects in embryos” value is listed as “severe compared to those embryos treated with D-chiroinositol”. For the same molecule, the “incidence of neural tube defects” value with curly tail model (mouse models that are folate resistant) is “reduced the incidence of neural tube defects”. Further, the “efficacy in Alzheimer's disease” value in the assay with amyloid β deposits is on record as “not to be effective”.
Take etanercept: in assay [3], the “reduction of the number of liver metastases” value was 42% and the “reduction of volumes of recurrent tumors” value was 51%. Also, the “effect on proliferation and invasiveness of PDAC cells” value with PDAC cells was “only marginally affected”.
Regarding `O=P(O)(O)O[C@H]1[C@H](OP(=O)(O)O)[C@@H](OP(=O)(O)O)[C@H](OP(=O)(O)O)[C@@H](OP(=O)(O)O)[C@H]1OP(=O)(O)O` [myoinositol hexaphosphate], in the assay with MDA-MB 231 cells, the “secretion of MMP-9” value is recorded as “significantly inhibits”.
Regarding `O[C@H]1[C@H](O)[C@H](O)[C@@H](O)[C@@H](O)[C@H]1O` [D-chiroinositol, D-chiro-inositol], the “frequency of fetal malformations” value in [4] is given as “reduced”. The “frequency of male breast cancer” value in assay [9] is reported as “substantially reduced”. The PNP closure entry in assay [10] was “normalizes PNP closure”. In addition, the “rate of fetal alcohol syndrome defects” value in assay [11] is “substantially less”. Besides, the “frequency of spina bifida” value with curly tail model (curly tail model, compound alone) is reported as “reduced frequency of spina bifida in this model to a greater extent than myo-inositol alone”.

Values taken from patent publication US12329766B2, “Compounds, methods, and treatments for abnormal signaling pathways for prenatal and postnatal development” (priority 2006, dated 2025).
